Test results reported in patent US10093627B2, “Tetrahydroquinoline derivatives and their use as Epac inhibitors” (Institut National de la Sante et de la Recherche Medicale …, priority 2012, dated 2018).

What was measured:
Epac1 = biological target: T1, Epac1 (Homo sapiens, UniProt O95398); test: Epac1 nucleotide exchange activity, multipoint (time-course) method, bGDP-loaded GST-Rap1A; assay type: biochemical; conditions: 20 μM CE3F4, single dose; 2 μM compound 007; FIG. 1
T1 construct: Recombinant human Epac1 (residues 149-881), deleted of its Dishevelled, Egl-10, and Pleckstrin (DEP) domain; made in house
T1 sequence (O95398 149-881 isoform O95398-3): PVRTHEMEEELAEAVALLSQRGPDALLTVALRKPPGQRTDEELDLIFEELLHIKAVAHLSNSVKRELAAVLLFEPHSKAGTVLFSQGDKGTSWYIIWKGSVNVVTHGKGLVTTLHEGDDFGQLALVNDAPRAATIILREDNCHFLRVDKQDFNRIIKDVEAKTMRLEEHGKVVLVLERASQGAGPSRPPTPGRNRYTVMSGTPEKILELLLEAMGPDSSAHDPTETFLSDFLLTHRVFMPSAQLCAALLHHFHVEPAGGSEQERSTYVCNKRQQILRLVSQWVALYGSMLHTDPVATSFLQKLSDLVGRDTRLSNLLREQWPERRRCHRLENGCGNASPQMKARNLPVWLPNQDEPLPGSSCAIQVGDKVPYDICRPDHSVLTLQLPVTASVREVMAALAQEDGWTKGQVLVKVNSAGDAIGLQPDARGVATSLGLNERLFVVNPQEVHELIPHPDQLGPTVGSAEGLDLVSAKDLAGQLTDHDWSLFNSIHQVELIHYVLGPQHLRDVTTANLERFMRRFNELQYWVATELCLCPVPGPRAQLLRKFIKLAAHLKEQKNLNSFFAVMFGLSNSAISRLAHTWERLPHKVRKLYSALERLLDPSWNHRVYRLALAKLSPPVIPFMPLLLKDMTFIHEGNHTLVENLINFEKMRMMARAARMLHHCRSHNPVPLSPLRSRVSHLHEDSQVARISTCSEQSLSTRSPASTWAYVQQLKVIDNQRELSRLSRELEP
Protocol: Epac1 nucleotide exchange activity was measured: • in the absence of compound 007, • or in the presence of 2 μM of compound 007, either alone or with 25 μM of compound 009, • or with 20 μM of CE3F4.
Variations of RFU (Relative Fluorescence Units) were studied as a function of time and fitted to single exponentials. Reported values are mean±SEM (n=3). (see Materiel and Methods).
Concerning FIG. 1, a “multipoint” (time-course) method was used. All components except the agonist (007) were mixed in a well and the exchange activity of Epac1 was initiated by injection of the agonist. GST-Rapt was preloaded with a fluorescent derivative of GDP, and the Epac1-catalyzed nucleotide exchange was measured using a large excess of non-fluorescent GDP, by taking advantage of the spectroscopic difference between free and Rap1-bound fluorescently labeled GDP. The principle of the method is similar to that reported in particular by Van den Berghe et al. (1997; Oncogene 15, 845), except that Bodipy FL-labeled GDP (bGDP) was used here, rather than 2′,3′-bis(O)—N-methylanthraniloyl-GDP (mant-GDP). […]

[1] = tested on: Epac1-induced H-Ras activation in HEK293 cells; test: Epac1-induced H-Ras activation, H-Ras-GTP pull-down in HEK293 cells; assay type: cell-based
Protocol: (§1) The effects of CE3F4 to prevent Epac1-induced H-Ras activation was determined by extraction of GTP-loaded H-Ras from cell lysates with the immobilized Ras-binding domain of Raf1.
(§2) HEK293 cells (FIG. 3A) or rat neonatal cardiac myocytes (FIG. 3B) were transfected with Epac1. 24 h after transfection, cells were preincubated or not with CE3F4 for 30 min and were then treated or not with Sp-007 (10 μM) for 10 min. In FIG. 3C, HEK293 cells overexpressing β1-AR and transfected with Epac1 were pretreated or not with 20 μM of CE3F4 for 30 min and stimulated or not with Iso for 10 min. Amounts of H-Ras-GTP were determined by pull-down assays. The bar graph represents the mean±S.E.M. of 5 (FIG. 3A) or 2 (FIG. 3B, 3C) independent experiments. Results are expressed as the percentage of unstimulated control cells.
Ras and Rap1 pull-down experiments were performed using a GST fusion protein containing respectively the Ras binding domain of Raf1-RBD and the Rap1 binding domain of Ral-GDS as previously described (Métrich et al., 2008). Cells were starved for 1 h before stimulation in MEM free with penicillin-streptomycin (1%). […]

[2] = tested on: Epac1-induced H-Ras activation in rat neonatal cardiac myocytes; test: Epac1-induced H-Ras activation, H-Ras-GTP pull-down in rat neonatal cardiac myocytes; assay type: cell-based; conditions: rat neonatal cardiac myocytes transfected with Epac1; CE3F4 30 min; Sp-007 10 μM, 10 min; FIG. 3B
Protocol: as §1, §2
Cardiac myocytes were isolated as previously described by Wollert and colleagues (1996). HEK293 cells stably expressing the β1-adrenergic receptor (β1-AR) was a gift of Dr. Shenoy (Duke University). HEK293 cells were maintained in MEM with FBS (Foetal Bovine Serum; 10%) and penicillin-streptomycin (1%). All media, sera and antibiotics used in cell culture were purchased from Invitrogen (Cergy Pontoise, France). […]

How did the “Inhibition of the exchange reaction induced by Epac1 plus 007” value (Epac1) turn out when `CC1CCc2c(cc(Br)c(F)c2Br)N1C=O` (racemic) [CE3F4] was run?
The value was “inhibited the exchange reaction”.

What about the “Amount of Ras-GTP induced by Iso” value ([1]; HEK293 overexpressing β1-AR, transfected with Epac1, CE3F4 20 μM, 30 min, Iso 10 min, FIG. 3C) of the same molecule?
Its value is “decreased”.

What about the “Amount of Ras-GTP induced by Sp-007” value ([1]; HEK293 transfected with Epac1, CE3F4 30 min, Sp-007 10 μM, 10 min, FIG. 3A) of the same molecule?
The value was “decreased”.

And the “Amount of Ras-GTP induced by Sp-007” value [2]?
Its value is “decreased”.
